Reference: the NIST ThermoML archive (doi:10.1016/j.jct.2017.12.015)
Numbers after ± are expanded uncertainties. Blank lines part the entries; values can stand above or below the molecule they belong to.

Columns and labels:
[1] = refractive index (Na D-line) (dimensionless); conditions: 298 K; 101.33 kPa; Liquid; Standard Abbe refractometry
[2] = Liquid, Ebulliometric method (Recirculating still)

Compound: O=Cc1ccco1 [2-furaldehyde]
refractive index [1]: 1.52364 ± 0.001

Compound: CC(C)=O [acetone]
refractive index [1]: 1.3555 ± 0.001

Compound: COC1CCCC1 [methoxycyclopentane]
vapor or sublimation pressure ([2]; 340.92 K): 29.4 ± 0.2 kPa | vapor or sublimation pressure ([2]; 345.38 K): 34.6 ± 0.2 kPa | vapor or sublimation pressure ([2]; 350.4 K): 41.4 ± 0.3 kPa | vapor or sublimation pressure ([2]; 356.3 K): 50.7 ± 0.3 kPa | vapor or sublimation pressure ([2]; 363.57 K): 64.4 ± 0.3 kPa | vapor or sublimation pressure ([2]; 366.69 K): 71.1 ± 0.3 kPa | vapor or sublimation pressure ([2]; 369.78 K): 78.3 ± 0.3 kPa | vapor or sublimation pressure ([2]; 374.39 K): 90 ± 0.3 kPa | vapor or sublimation pressure ([2]; 377.89 K): 99.8 ± 0.3 kPa | refractive index [1]: 1.41833 ± 0.001

Results, then the molecule that gave them:

vapor or sublimation pressure ([2]; 323.22 K): 36.4 ± 0.3 kPa | vapor or sublimation pressure ([2]; 327.67 K): 43 ± 0.3 kPa | vapor or sublimation pressure ([2]; 337.97 K): 62.1 ± 0.3 kPa | vapor or sublimation pressure ([2]; 341.54 K): 70.1 ± 0.3 kPa | vapor or sublimation pressure ([2]; 347.21 K): 84.4 ± 0.3 kPa | vapor or sublimation pressure ([2]; 350.53 K): 93.8 ± 0.4 kPa | vapor or sublimation pressure ([2]; 352.84 K): 100.8 ± 0.4 kPa | refractive index [1]: 1.40299 ± 0.001
Compound: CC1CCCO1 (configuration not stated) [2-methyltetrahydrofuran]

refractive index [1]: 1.37203 ± 0.001
Compound: CC(=O)O [acetic acid]

refractive index [1]: 1.3325 ± 0.001
Compound: O [water]
